pIC50: −log10 of the molar value. Where two headings read alike, the source gives them in different places.
Key:
DNMT3A/3L = DNMT3A/3L (Homo sapiens, UniProt Q9Y6K1); test: In vitro DNMT inhibition, radiometric filter-paper assay, DNMT3A/3L; format: biochemical
DNMT3B/3L = DNMT3B/3L (Homo sapiens, UniProt Q9UBC3); test: In vitro DNMT inhibition, radiometric filter-paper assay, DNMT3B/3L; format: biochemical
DNMT1 [1] = target: DNMT1 (Homo sapiens, UniProt P26358); test: In vitro DNMT inhibition, radiometric filter-paper assay, DNMT1; format: biochemical
Chain of DNMT1 (Homo sapiens, UniProt P26358) (P26358 whole entry): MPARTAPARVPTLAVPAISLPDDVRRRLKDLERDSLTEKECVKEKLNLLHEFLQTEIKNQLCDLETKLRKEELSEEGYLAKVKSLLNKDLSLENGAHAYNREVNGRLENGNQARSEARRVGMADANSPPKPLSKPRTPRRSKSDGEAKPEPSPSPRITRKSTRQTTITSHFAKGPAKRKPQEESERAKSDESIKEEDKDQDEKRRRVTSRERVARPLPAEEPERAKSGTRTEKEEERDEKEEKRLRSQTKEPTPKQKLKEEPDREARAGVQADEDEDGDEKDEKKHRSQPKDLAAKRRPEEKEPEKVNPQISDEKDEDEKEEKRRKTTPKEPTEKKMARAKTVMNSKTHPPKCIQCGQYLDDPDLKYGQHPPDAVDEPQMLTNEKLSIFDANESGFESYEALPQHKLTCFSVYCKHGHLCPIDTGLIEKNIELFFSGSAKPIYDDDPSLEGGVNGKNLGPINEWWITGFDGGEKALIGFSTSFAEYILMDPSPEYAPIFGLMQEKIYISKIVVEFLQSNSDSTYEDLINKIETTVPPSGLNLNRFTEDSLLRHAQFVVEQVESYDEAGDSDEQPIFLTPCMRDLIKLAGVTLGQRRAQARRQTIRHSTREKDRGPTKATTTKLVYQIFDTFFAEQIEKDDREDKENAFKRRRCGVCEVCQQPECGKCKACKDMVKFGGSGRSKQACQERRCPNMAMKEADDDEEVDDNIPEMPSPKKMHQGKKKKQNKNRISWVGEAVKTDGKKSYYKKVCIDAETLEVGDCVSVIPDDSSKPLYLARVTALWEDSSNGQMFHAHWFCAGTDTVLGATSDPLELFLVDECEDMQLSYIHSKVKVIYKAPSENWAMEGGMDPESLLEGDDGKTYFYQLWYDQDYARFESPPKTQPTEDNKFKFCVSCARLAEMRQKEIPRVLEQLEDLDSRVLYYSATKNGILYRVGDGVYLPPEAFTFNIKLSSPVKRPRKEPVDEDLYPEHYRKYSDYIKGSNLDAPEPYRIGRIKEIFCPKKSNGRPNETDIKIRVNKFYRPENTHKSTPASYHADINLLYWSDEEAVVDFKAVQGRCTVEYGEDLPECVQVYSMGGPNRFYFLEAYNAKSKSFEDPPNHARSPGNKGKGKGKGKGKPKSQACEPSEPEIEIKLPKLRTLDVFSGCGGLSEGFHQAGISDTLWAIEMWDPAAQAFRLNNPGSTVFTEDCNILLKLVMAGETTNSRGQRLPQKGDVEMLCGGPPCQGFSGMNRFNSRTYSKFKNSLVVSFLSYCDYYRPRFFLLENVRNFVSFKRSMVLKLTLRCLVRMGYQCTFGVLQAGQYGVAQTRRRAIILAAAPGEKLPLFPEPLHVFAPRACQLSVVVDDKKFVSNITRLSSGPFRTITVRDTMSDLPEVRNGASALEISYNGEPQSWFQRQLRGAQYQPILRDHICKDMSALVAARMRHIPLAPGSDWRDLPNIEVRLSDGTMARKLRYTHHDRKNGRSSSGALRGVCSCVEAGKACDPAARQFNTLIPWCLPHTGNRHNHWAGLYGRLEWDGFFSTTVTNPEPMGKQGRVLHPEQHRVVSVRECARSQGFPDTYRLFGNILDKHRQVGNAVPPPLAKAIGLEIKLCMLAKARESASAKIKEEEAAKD

HT-29 cells = test: MTT cell proliferation assay, HT-29; format: cell-based; settings: Homo sapiens, HT-29, 24 h, read-out: IC50 (μM) HT-29
HepG2 cells = test: MTT cell proliferation assay, HepG2; format: cell-based; settings: Homo sapiens, HepG2, 24 h, read-out: IC50 (μM) HepG2
DNMT3B = settings: rats, 21-week treatment period; protein expression ref 39; cited from earlier work
DNMT1 [2] = settings: rats, 21-week treatment period; protein expression ref 39; cited from earlier work

| Compound | pIC50 (DNMT3A/3L) | pIC50 (DNMT3B/3L) | pIC50 (DNMT1 [1]) | IC50 (HT-29 cells) | IC50 (HepG2 cells) | expression of DNMT3B (DNMT3B) | expression of the DNMT1 enzyme (DNMT1 [2]) | inhibition of DNMT3A at the highest test compound concentration (DNMT3A/3L; 300 μM) | inhibition of DNMT3B at the highest test compound concentration (DNMT3B/3L; 300 μM) | inhibition of DNMT1 at the highest test compound concentration (DNMT1 [1]; 300 μM) | IC50 (DNMT1 [1]; read-out: IC50 (μM) DNMT1, cell-free biochemical assay, NI = no inhibition at the maximum test compound concentration (300 μM)) |
| --- | --- | --- | --- | --- | --- | --- | --- | --- | --- | --- | --- |
| Oc1ccc(/C=C/c2cc(O)cc(O)c2)cc1 [Resveratrol, 3,4′,5-trans-trihydroxystilbene] | 3.98 | 4.19 | < 3.52 | 130 µM | 54.9 µM | significant reduction | did not significantly reduce |  |  |  |  |
| COc1ccc(/C=C/c2cc(OC)cc(OC)c2)cc1 [TMS, 3,4′,5-trans-trimethoxystilbene] | < 3.52 | < 3.52 |  | 14 µM | > 100 µM |  |  | no significant inhibition | no significant inhibition | no significant inhibition | > 300 µM |

— PMC4828318 (Journal of enzyme inhibition and medicinal chemistry, 2015)
